We go through six molecules from patent publication US20110020457A1, “POLYMER-SURFACTANT NANOPARTICLES FOR SUSTAINED RELEASE OF COMPOUNDS” (Wayne State University, priority 2006, published 2011).

“Also recorded” adds a separate entry of the source. Like-named read-outs stand apart in the source and are kept apart here.

The conditions of data set [1]: cited from earlier work.
For data set [2] the following is noted: also after multiple dosing; cited from earlier work.
The subject of data set [3] is MCF-7 cells. In words: Cytotoxicity of methylene blue PDT. The settings on record: 0.3 or 0.6 μM, no light.
In a further data set the test system is ROS. In words: Nanoparticle-mediated ROS generation ex vitro (APF fluorescence). The settings on record: photo-activated. The source says: PBS and empty nanoparticles were used as negative controls. To determine the effect of dose of light on the amount of ROS generated, above samples were photo-activated with 10 consecutive doses of light (1200 mJ/cm^2 per dose) measuring fluorescence after each illumination. […] Experiments performed as above but without light irradiation were used as light negative controls.

For data set [4] the following is noted: pH 7.4. As to the method:
In vitro release studies: In vitro release of nanoparticle-encapsulated drug was determined under sink conditions. The term “sink conditions” refers to release conditions in which the volume of the buffer used is sufficient to dissolve all of the drug present in the delivery system. Such conditions are used to assure that the amount of drug released is not limited by the degree of solubility in the buffer or solvent used. Nanoparticles (˜5 mg) were dispersed in 0.5 ml of phosphate-buffered saline (PBS, pH 7.4, 0.15M) and suspended in DispoDialyzer® (10 kDa MWCO, Pierce) dialysis tubes. These were then placed in a 15-ml centrifuge tube containing 10 ml of PBS. The whole assembly was shaken at 100 rpm and 37.0±0.5° C. in an orbital shaker (Brunswick Scientific, C24 incubator shaker, NJ). […] Drug concentration in the release samples was determined as in drug loading determinations. Stability of different drugs under in vitro release conditions was determined and the drug release profile was corrected for degradation, if any.
Initially, the stability of these drugs under the release conditions (PBS, pH 7.4 and 37° C.) were investigated.

For data set [5], the system named is NCI-ADR/RES cells. As to the kind of experiment: Intracellular distribution of doxorubicin by fluorescence microscopy. In kind it is cell-based. The settings on record: 2.5 μg/mL doxorubicin, 2 h. The method, then:
At the end of the treatment period, cells were washed three times with cold PBS and then lysed using 100 μL of cell culture lysis reagent (CCLR; Promega). The protein content of the cell lysates was determined using the Pierce (Rockford, Ill.) BCA protein assay. Cell lysates were then mixed with 300 μL of methanol and incubated at 37° C. for 6 h at 100 rpm. Samples were centrifuged at 14 000 rpm for 10 min at 4° C. The concentration of rhodamine in the methanolic extract was determined by HPLC as described before. Data were expressed as rhodamine accumulation normalized to total cell protein. For fluorescence microscopy, the uptake and intracellular distribution of doxorubicin in NCI-ADR/RES cells were determined qualitatively using fluorescence microscopy. Cells ([…]) were seeded on coverslips placed in 35 mm dishes.
At 2 h post-treatment, cells were rinsed with drug-free medium and incubated with 75 nM Lysotracker Green (Invitrogen) for 30 min. Cells were then washed and counterstained with DAPI (4′,6-diamidino-2-phenylindole, Invitrogen). Images were captured with a BX60 Olympus fluorescence microscope. Images captured using red, blue, and green filters were overlaid to determine localization and association of doxorubicin-associated red fluorescence in the nucleus and endolysosomes, respectively.

Data set [6] concerns MCF-7 cells. As to the kind of experiment: Cytotoxicity in drug-sensitive cells, MTS assay (Example 5). In kind it is cell-based, Human. The settings on record: doxorubicin in solution. As to the method: (§1) For cytotoxicity studies, NCI-ADR/RES or MCF-7 cells were seeded in 96-well plates at a seeding density of 5000-10000 cells per well per 0.1 mL of medium and allowed to attach overnight. […] Untreated cells and empty nanoparticles were used as controls. […] Cytotoxicity was determined over a period of 10 days using a commercially available MTS assay (Promega). Results were analyzed by using an ANOVA. Differences were considered significant at P<0.05.
For orientation: Tetrazolium assays rely on reduction of a dye to a coloured formazan, in cell work by metabolically active cells.

The test system of data set [7] is JC tumors (doxorubicin-resistant mammary adenocarcinoma). As to the kind of experiment: Tumor growth after combination PDT and chemotherapy in drug-resistant tumor. In kind it is in vivo, female Balb/c mice. The settings on record: single i.v. dose, 4 mg/kg doxorubicin. An excerpt: FIG. 16. Nanoparticle-mediated combination PDT and chemotherapy overcame tumor drug resistance in vivo. […] About twenty four hours after treatment administration, tumors were exposed to light of 665 nm wavelength (50 J/cm^2). Animals were then monitored for tumor growth. The results are shown as percent increase in tumor volume as a function of time after treatment (days), with the various treatment protocols.
Nanoparticle-mediated combination PDT-chemotherapy inhibited drug-resistant tumor growth. The in vivo efficacy of nanoparticle-mediated combination chemo- and photodynamic therapy was studied in a mouse model of drug-resistant tumor. Drug-resistant JC tumors (doxorubicin-resistant mammary adenocarcinoma) grown subcutaneously in female Balb/c mice were used in these experiments. Mice were administered a single i.v. dose of the different treatments. […] About 24 hrs after treatment administration, tumors were exposed to light of 665 nm wavelength (50 J/cm^2). Animals were then monitored for tumor growth.

In data set [8] the test system is NCI-ADR/RES cells. As to the kind of experiment: Cytotoxicity in drug-resistant cells, MTS assay (Example 5). It is filed as cell-based. As to the method: as §1

By pKa is commonly meant the negative logarithm of the acid dissociation constant. Consider `CCCCC(CC)COC(=O)CC(C(=O)OCC(CC)CCCC)S(=O)(=O)[O-].[Na+]` (stereo not drawn) [AOT, dioctylsodium sulfosuccinate], for which, in data set [1] (sulfonic group), the pKa was under 1. Moreover, in data set [2], the “Elimination and accumulation in the body” value is “easily removed from the body through renal elimination, and does not accumulate”.

With `CN(C)c1ccc2nc3ccc(=[N+](C)C)cc-3sc2c1` [methylene blue, Methylene blue], in the data set on MCF-7 cells [3], the “Cytotoxic effect without light-activation” value is “no significant effect”. Besides, in the data set on ROS, the “Increase in fluorescence at 0.6 μM compared to 0.3 μM” value stood at 2 fold.

On to `COc1cccc2c1C(=O)c1c(O)c3c(c(O)c1C2=O)C[C@@](O)(C(=O)CO)C[C@@H]3O[C@H]1C[C@H](N)[C@H](O)[C@H](C)O1` [Doxorubicin], for which, in [1], the pKa is reported as about 8.2. Moreover, the Ionized fraction entry in data set [1] (pH 7.4) is “about 86%”. Also, in data set [4], the “Stability under the release conditions” value is reported as “biphasic, first-order degradation profile”. Moreover, in the data set with NCI-ADR/RES cells [5], the “Doxorubicin in nuclei of cells” value is recorded as “No or insignificant doxorubicin fluorescence”. Moreover, the “Intracellular distribution of doxorubicin” value in the data set on NCI-ADR/RES cells [5] (listed as Free doxorubicin) is listed as “diffuse distribution within the cells, with a significant fraction appearing in vesicles located near the cell membrane; also recorded: present near the cell surface”. Further, the “Cytotoxicity in drug-sensitive cells” value with MCF-7 cells [6] is “dose-dependent cytotoxicity”. Also, the “Therapeutic effect on tumor growth” value in data set [7] is “did not show a significant therapeutic effect”. Moreover, the “Concentration required to induce cytotoxicity” value in the data set with NCI-ADR/RES cells [8] (doxorubicin in solution, drug-resistant cells) is over 50 µg/mL.

As to `COc1ccc(CCN(C)CCCC(C#N)(c2ccc(OC)c(OC)c2)C(C)C)cc1OC` (stereo not drawn) [Verapamil], in the data set on NCI-ADR/RES cells [8] (verapamil 23.0 μg/mL with doxorubicin 0.4 μg/mL in solution), the “Effect on resistance to doxorubicin” value is on record as “reversed the resistance to doxorubicin”.

Turning to `O=C(O)Cc1ccccc1Nc1c(Cl)cccc1Cl` [Diclofenac, diclofenac sodium], the “Stability under the release conditions” value in data set [4] is listed as “stable”.

For `Clc1cccc(Cl)c1N=C1NCCN1` [Clonidine], the “Stability under the release conditions” value in data set [4] is reported as “stable”.
